As usually defined, the MIC is the smallest concentration in the dilution series that meets the test's criterion for growth inhibition. Broadly, the Ki is the equilibrium dissociation constant of an inhibitor or competing ligand from its target.

Experimental findings from article PMC7948796, “Mammalian-like type II glutaminyl cyclases in Porphyromonas gingivalis and other oral pathogenic bacteria as targets for treatment of periodontitis” (The Journal of Biological Chemistry, 2021) are described below.

SMILES strings stand for the structures. ≈ marks a conversion by molar mass, not a printed value. Entries after “also recorded” stand apart in the source; their conditions may differ.

Assay [1] concerns Porpyhromonas gingivalis ATCC 33277. Put plainly: MIC, micro-broth dilution. The assay is classed as cell-based, Porphyromonas gingivalis. On the procedure: (§1) The micro-broth dilution technique was used to determine MICs. After subcultivation of bacterial strains and checking of purity, a defined inoculum was added to Wilkins–Chalgren broth (Oxoid) supplemented with 10 μg/ml β-NAD (Sigma-Aldrich) containing the inhibitor. A twofold dilution series was made, starting from 2 mM (final concentration) of the inhibitor. The growth control contained 10% of the inhibitor dissolvent at 2 mM (0.01% DMSO in a buffer with 50 mM TRIS, pH 8, and 50 mM NaCl). After an incubation period of 42 h (18 h for the aerobic S. gordonii), the growth of microbes was analyzed by visual analysis of the turbidity. MIC represents the lowest concentration without visible turbidity. All experiments were made using independent replicates.
On the technique in general: In broth dilution the organism is exposed to a series of concentrations in liquid medium.

Assay [2] has as its system Porpyhromonas gingivalis M5-1-2 (clinical isolate). Put plainly: MIC, micro-broth dilution. The assay is classed as cell-based, Porphyromonas gingivalis. On the procedure: as §1
Assay [3] deals with Porpyhromonas gingivalis J374–1 (clinical isolate). As to the kind of experiment: MIC, micro-broth dilution. The assay is classed as cell-based, Porphyromonas gingivalis. As for the experimental part:
as §1

Assay [4] relates to Fusobacterium nucleatum ATCC 25586. Put plainly: MIC, micro-broth dilution. The assay is classed as cell-based. As for the experimental part: as §1
Assay [5] relates to Prevotella intermedia ATCC 25611. Put plainly: MIC, micro-broth dilution. The assay is classed as cell-based. On the procedure:
as §1

Assay [6] concerns Tannerella forsythia ATCC 43037. Put plainly: MIC, micro-broth dilution. The assay is classed as cell-based. As for the experimental part:
as §1

The test system of assay [7] is Streptococcus gordonii ATCC 10558. Put plainly: MIC, micro-broth dilution. The assay is classed as cell-based. As for the experimental part: as §1
The next assay deals with HsQC (Homo sapiens, UniProt Q16769). Put plainly: QC inhibition assay with fluorogenic substrate H-Gln-AMC (Ki). The assay is classed as biochemical. Conditions: read-out: Ki value for HsQC.
Sequence of HsQC (Q16769 29-361): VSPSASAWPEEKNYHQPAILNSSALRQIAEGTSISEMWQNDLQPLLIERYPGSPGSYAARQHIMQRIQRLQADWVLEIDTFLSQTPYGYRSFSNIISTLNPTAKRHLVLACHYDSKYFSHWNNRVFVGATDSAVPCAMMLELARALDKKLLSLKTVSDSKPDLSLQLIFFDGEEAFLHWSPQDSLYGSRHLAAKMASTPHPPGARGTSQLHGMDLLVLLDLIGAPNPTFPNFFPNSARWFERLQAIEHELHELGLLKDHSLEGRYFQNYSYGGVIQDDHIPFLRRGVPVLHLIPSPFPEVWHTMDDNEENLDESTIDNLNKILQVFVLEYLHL
In the next assay the target is PgQC (Porphyromonas gingivalis, UniProt Q7MT37). The description is as above. The assay is classed as biochemical. Conditions: Ki value for PgQC. Set-up: His-tag (pET28a, thrombin-cleavable) (N, cleaved yes); made in house; host or cells: E. coli Rosetta(DE3)pLysS. On the procedure: Inhibitory constants were determined using concentrations of H-Gln-AMC varying from 1/4 KM to 2 KM and a final concentration of bacterial QC in a range between 25 nM and 50 nM. Progress curves were fitted to the general equation for competitive inhibition.
Sequence of PgQC (Q7MT37 entry or part of it): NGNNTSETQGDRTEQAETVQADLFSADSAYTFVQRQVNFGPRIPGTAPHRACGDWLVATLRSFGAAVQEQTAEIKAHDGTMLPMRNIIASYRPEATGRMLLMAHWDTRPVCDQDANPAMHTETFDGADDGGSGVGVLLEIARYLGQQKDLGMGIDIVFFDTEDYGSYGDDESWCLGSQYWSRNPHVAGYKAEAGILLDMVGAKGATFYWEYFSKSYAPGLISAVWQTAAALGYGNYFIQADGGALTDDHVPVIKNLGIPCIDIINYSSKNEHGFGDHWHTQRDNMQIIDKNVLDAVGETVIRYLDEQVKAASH

For the next assay, the system named is P. gingivalis ATCC 33277. As to the kind of experiment: Growth curves, OD at 600 nm. Conditions: laboratory strain ATCC 33277, Fig. 6A. The assay is classed as cell-based, Porphyromonas gingivalis. As for the experimental part: (§2) In addition, we monitored the growth of two P. gingivalis strains ([…] and J374-1) by measuring the OD at 600 nm at different time points (it was not possible to make continuous measurements due to the anaerobic growth conditions of P. gingivalis), with the OD600 being recorded at 0 h, 16 h, 20 h, 24 h, and 42 h.

The next assay relates to P. gingivalis J374-1. Put plainly: Growth curves, OD at 600 nm. The assay is classed as cell-based, Porphyromonas gingivalis. The following applies: clinical isolate J374-1, Fig. 6B. As for the experimental part:
as §2

For the molecule `Clc1ccc(CNc2cnc3nc[nH]c3c2)cc1` [S-316, N-(4-chlorobenzyl)imidazo[4,5-b]pyridin-6-amine], the MIC in words result in assay [1] (P. gingivalis laboratory strain), in [2] (P. gingivalis clinical isolate), in assay [3] (P. gingivalis clinical isolate), in [5] (P. intermedia) and in assay [6] (T. forsythia) was “submillimolar” each time. Further, the MIC in [1] (Porphyromonas gingivalis, ATCC33277, P. gingivalis ATCC 33277, 42 h) was 500 µM (≈ 129 µg/mL); in assay [2] (Porphyromonas gingivalis, P. gingivalis M5-1-2 clinical isolate, 42 h), 250 µM (≈ 64.7 µg/mL); in [3] (Porphyromonas gingivalis, P. gingivalis J374–1 clinical isolate, 42 h), 500 µM (≈ 129 µg/mL); in [4] (Fusobacterium nucleatum, ATCC25586, F. nucleatum ATCC 25586, 42 h), above 2000 µM; in [5] (Prevotella intermedia, ATCC25611, P. intermedia ATCC 25611, 42 h) it was 125 µM (≈ 32.3 µg/mL); in assay [6] (Tannerella forsythia, ATCC43037, T. forsythia ATCC 43037, 42 h), 500 µM (≈ 129 µg/mL). The molecule further returned an MIC in assay [7] (Streptococcus gordonii, ATCC10558, S. gordonii ATCC 10558, 18 h) above 2000 µM. Moreover, the Growth attenuation entry in assay [4] (Gram-negative F. nucleatum, no QC-like enzyme) is reported as “did not result in growth attenuation”; in assay [7] (Gram-positive S. gordonii, no QC-like enzyme), “did not result in growth attenuation”. The figures for the Ki on HsQC and on PgQC were 655 ± 27 nM and 53 ± 1.1 nM, respectively. For the same molecule, the “P. gingivalis growth inhibition, dependence on concentration” value with P. gingivalis ATCC 33277 and with P. gingivalis J374-1 was “dose-dependent; also recorded: concentration-dependent manner” throughout.
